# Measured values: patent US9795570B2, “Modulation of macrophage phenotype by emodin” (University of South Carolina, priority 2016, dated 2017)
# Legend:
# [1] = test system: mouse peritoneal macrophages; assay: Macrophage migration assay toward MCP1 (transwell); type: cell-based; conditions: LPS/IFNγ or IL4 stimulated, emodin 50 μM, MCP1 20 ng/ml
# Method: Macrophages were stimulated with IL4 or LPS+IFNγ for 24 h with or without emodin. The media was then removed and the cells were washed with PBS. The cells were then resuspended in DMEM with scraping and 2×10^5 macrophages were seeded in triplicate into the top chamber of transwell inserts with 8 μm pores (Corning) and place in 24 well plates. Serum free DMEM with 20 ng/ml MCP1 was placed in the bottom of the wells. After 4 h, inserts were fixed in 4% paraformaldehyde for 20 min; the cells in upper inserts were swabbed using cotton buds, and the cells left on the membrane were stained with DAPI (1 μg/ml) for 1 min. The inserts were then cut out, mounted onto slides and imaged under a Nikon Eclipse NI-U fluorescence microscope (Nikon Inc. Melville, N.Y.) at 20× magnification (5 fields/insert). DAPI stained cells were quantified using Nikon NIS-Elements software.
# [2] = test system: H3K27m3 and H3K27ac; assay: Histone modifications H3K27m3/H3K27ac (western blotting, ChIP assay); type: cell-based, mouse
# Method: Following stimulation with IL4 or LPS+IFNγ with or without emodin for varying periods, macrophages were lysed with cell signaling lysis buffer (Millipore) for whole cell lysates. Cytoplasmic and nuclear extracts were prepared using the Epiquik Nuclear Extraction kit (Epigentek, Farmingdale, N.Y.). Total protein was separated on 4-20% Tris-glycine pre-cast gels (Pierce) and transferred onto Nitrocellulose membranes (Bio-Rad Life Science, Hercules, Calif.). The membranes were then probed with HRP conjugated secondary antibodies, and signals were detected using Pierce ECL Western Blotting Substrate (Pierce).
# Macrophages were stimulated with IL4 or LPS+IFNγ for 24 h with or without emodin. They were then fixed in 1% formaldehyde. Excess formaldehyde was quenched with glycine and the cells were collected in PBS by scraping. The cells were lysed (0.5% IGEPAL, 4 mM HEPES) and the nuclei were resuspended in nuclear lysis buffer (1% SDS, 10 mM EDTA, and 50 mM Tris, pH 8.1). The DNA was sheared by sonication using a Diagnode Bioruptor Pico for 15 cycles of 30 s on/30 s off. Then 10 μg chromatin was diluted 1:10 (0.01% SDS, 1.1% Triton X-100, 1.2 mM EDTA, 16.7 mM Tris-HCl, pH 8.1, 167 mM NaCl) and 2% of the input was removed from each sample and saved for analysis. Anti-H3K27m3 or anti-H3K27ac (Abcam) was added to each sample along with 20 μl of protein A+G magnetic beads (Millipore) and the samples were incubated overnight at 4° C. The beads were washed with low salt, high salt, LiCl, and TE wash buffers sequentially and the DNA was eluted off the beads with Proteinase K at 62° C. for 2 h (elution buffer: 200 mM NaCl, 1% SDS and 50 mM Tris). The DNA was then analyzed by real time PCR.
# [3] = test system: peritoneal macrophages and 4T1 cells; assay: Tumor cell-macrophage adhesion; type: cell-based, mouse
# Method: Tumor cell monolayers (80-90% confluent) and macrophages were treated with emodin (0-25 μM) overnight. The cells were then washed multiple times with PBS, and fresh SF DMEM was added. Macrophages were resuspended with scraping and 5×10^5 cells were seeded onto the tumor cell monolayers. After 1 h the non-adherent cells were washed away, and the adherent cells were resuspened with Trypsin and mild scraping. The total number of cells was counted, and cells were stained with anti-F4/80 FITC (Biolegend). The cells were analyzed on a Beckman Coulter FC500.
smiles,measurement,setting,value
Cc1cc(O)c2c(c1)C(=O)c1cc(O)cc(O)c1C2=O [emodin],macrophage migration toward MCP1,[1],significantly reduced
same,"IL4-induced decrease of H3K27m3 in the promoter of IRF4, Arg1 and YM1 genes",[2]; ChIP assay,reversed
same,"LPS/IFNγ-induced decrease of H3K27m3 in the promoter of iNOS, TNFα and IL6 genes",[2]; ChIP assay,attenuated
same,"induced increase of H3K27ac in promoters (LPS/IFNγ: iNOS, TNFα, IL6; IL4: IRF4, YM1)",[2]; ChIP assay,suppressed
same,global expression of H3K27m3 or H3K27ac,"[2]; western blotting, LPS/IFNγ or IL4, emodin 50 μM 24 h",no effect
same,adhesion of macrophages to a monolayer of tumor cells,[3]; emodin treatment of both macrophages and tumor cells,decreased the adhesion even further
same,adhesion of macrophages to a monolayer of tumor cells,[3]; emodin treatment of either macrophages or tumor cells,significantly inhibited
